Columns and labels:
[1] = Small angle x-ray diffraction of glucose-treated model membranes, cholesterol domain peak intensity (Example 4); assay type: physicochemical; conditions: 96-hour time point; vs vehicle or vitamin E treatments; 1:30; glucose 200 mg/dL
Procedure: After centrifugal orientation, sample supernatants were aspirated and aluminum foil substrates, each supporting a single membrane pellet, were removed from the sedimentation cells. […] All x-ray diffraction experiments were conducted at 20° C., 74% relative humidity.
Oriented membrane samples were aligned at grazing incidence with respect to a collimated, mono-chromatic CuKα x-ray beam (Kα1 and Kα2 unresolved; λ=1.54 Å) produced by a Rigaku Rotaflex RU-200, high-brilliance microfocus generator (Rigaku-MSC, The Woodlands, Tex.) as previously described (Mason et al., Biophys. J., vol. 55(4), pages 769-778 (1989)).
Routines written in Origin 8.6 (OriginLab Corporation, Northampton, Mass.) were used to determine total peak area (associated with all diffraction peaks in a given pattern) against which the second-order cholesterol domain peak was normalized.

[2] = Glucose-induced membrane lipid peroxidation (LOOH) in multilamellar vesicles, CHOD-iodide assay (Example 4); assay type: biochemical; conditions: for inhibited the peroxidative effects of glucose (LOOH formation): vs glucose alone
Procedure: Vitamin E (α-tocopherol) was also purchased from Sigma-Aldrich and prepared in ethanol at 1.0 mM (ε=3.06×10^4 M^−1 cm^−1 at 294 nm) just prior to experimental use. […] All test compounds were further diluted in ethanol or aqueous buffer as needed. Glucose was prepared in saline buffer (0.5 mM HEPES, 154 mM NaCl, pH 7.3) at 11.0 mM (200 mg/dL). CHOD-iodide color reagent (stock) was prepared, with slight modification, as described by from El-Saadani et al. (J. […] Samples were shell-dried under nitrogen gas and placed under vacuum for 1 h to remove residual solvent. […] Lipid suspensions were then vortexed for 3 min at ambient temperature to form MLVs. All MLV samples were subjected to time-dependent autoxidation by incubating at 37° C. in an uncovered, shaking water bath. This method allows lipid peroxidation to occur gradually without requiring the use of exogenous initiators. Small aliquots (5-100 μL) of each sample were removed, immediately following MLV preparation (0 hour) and after exposing samples to oxidative conditions for 72 or 96 hour, and combined with 1.0 mL of activated CHOD-iodide color reagent. Aliquot volume was reduced with each successive time point to ensure that spectrophotometric readings were within the optimal adsorption range. Test samples were covered and incubated in darkness at room temperature for at least 4 hr. Sample absorbances were then measured against a CHOD blank at 365 nm using a Beckman DU-640 spectrophotometer. The CHOD colorimetric assay is based on the oxidation of iodide (I^−) by lipid hydroperoxide (LOOH) to form triiodide (I3^−), the quantity of which is directly proportional to the amount of LOOH present in the lipid sample. The molar absorptivity (E) of I3^− is 2.46×10^4 M^−1 cm^−1 at 365 nm. […] The concentration of glucose selected was consistent with previous experimental studies of hyperglycemia under controlled laboratory conditions or observed in well-defined animal models of Type II diabetes following a glucose challenge. […] Values in FIG. 1 are mean±S.D. (N=6). EPA inhibited the peroxidative effects of glucose by 88% and 86% at 72 and 96 hours, respectively, which was highly significant (p<0.001) as compared to glucose treatment alone. […] Overall ANOVA-0 hour data: p=0.6655, F=0.4185; 72 hour data: p<0.0001, F=428.72; 96 hour data: p<0.0001, F=322.01.

[3] = system: HUVECs challenged with oxLDL; assay: NO and ONOO− release from HUVECs pretreated with agents, then oxLDL (Example 11, Objective 1); assay type: cell-based, human; conditions: pretreated 30 min at 10 μM, then oxLDL 11 mg/dL up to 3 hr, calcium ionophore 1.0 μM
Procedure: The omega-3 fatty acid, cis-5,8,11,14,17-eicosapentaenoic acid (EPA) and docosahexaenoic acid (DHA) were purchased from Sigma-Aldrich (Saint Louis, Mo.) and solubilized in redistilled ethanol to 11 mM under nitrogen atmosphere. EPA and DHA stock solutions were stored at −20° C. until use.
Human umbilical vein endothelial cells (HUVECs) were obtained from healthy, female donors and isolated into primary, proliferating cell cultures (Clonetics, San Diego, Calif.). […] The confluent cells (4 to 5×10^5 cells/35 mm dish) were plated with minimum essential medium containing 3 mM L-arginine and 0.1 mM BH4 [(6R)-5,6,7,8-tetrahydrobiopterin]. Before experimental use, the cells (from second or third passage) were rinsed twice with Tyrode-HEPES buffer with 1.8 mM CaCl2. […]
LDL underwent oxidation following the addition of 10 μM CuSO4. […] Sample TBARS concentrations were determined spectrophotometrically by measuring sample absorbances against a standard curve derived from the hydrolysis of 1,1,3,3-tetramethoxypropane. […]
The amperometric method (with a response time of 0.1 ms) provides a quantitative signal (current) that is directly proportional to changes (from basal levels) in NO or ONOO^− concentration. […] Basal NO or ONOO^− levels were measured by differential pulse voltammetry in separate experiments. […]
NO and ONOO^− release were measured following stimulation with calcium.

| Structure (SMILES) | inhibited relative cholesterol domain peak intensity [1] | effect on LOOH formation / lipid peroxidation ([2]; 72- and 96-hour time points, 1:30 drug-to-phospholipid mole ratio, glucose) | inhibited the peroxidative effects of glucose (LOOH formation) ([2]; 72 hours, glucose 200 mg/dL, 1:30 drug-to-phospholipid mole ratio) [%] | inhibited the peroxidative effects of glucose (LOOH formation) ([2]; 96 hours, glucose 200 mg/dL, 1:30 drug-to-phospholipid mole ratio) [%] | antioxidant effects of separate treatments (LOOH formation) ([2]; each at 1.0 μM, glucose 200 mg/dL, 96 hours) | NO/ONOO− Ratio [3] | NO/ONOO− Ratio ([3]; listed as Niacin) |
| --- | --- | --- | --- | --- | --- | --- | --- |
| CC/C=C\C/C=C\C/C=C\C/C=C\C/C=C\CCCC(=O)O [EPA, cis-5,8,11,14,17-eicosapentaenoic acid] | more than 99% | significantly inhibited LOOH formation | 88 | 86 | potent antioxidant effects |  |  |
| O=C(O)c1cccnc1 [niacin, nicotinic acid] |  |  |  |  |  | 1.45±0.14 | 1.45 ± 0.14 |
